Experimental data from US7569596B2, “Imidazolamino compounds” (National Health Research Institutes, priority 2002, dated 2009).

Tested on: Murine leukemic P388 cells
Assay: In vivo anticancer activity, murine leukemic P388 model
Parameters: species or system DBA/2J mice
Details: mice intravenously inoculated with P388 cells; given P.O. or I.V. at different doses
Experimental: Evaluation of in vivo Anticancer Activity
The in vivo anticancer activities of the compounds were evaluated by the following murine leukemic P388 model. Inbred female DBA/2J mice of 4-5 week-old were purchased from the National Laboratory Animals Breeding and Research Center, Taipei, Taiwan, ROC. Murine leukemic P388 cells were purchased from the Japanese Collection of Research Bioresources, Japan. P388 cells were cultured and propagated in RPM11640 medium supplemented with 50 μM 2-mercaptoethanol and 10% fetal bovine serum. Mice at the age of 6 weeks were grouped as the treatment, negative control and positive control groups at 7 to 8 mice per group. All mice were intravenously inoculated with the P388 cells at one million per mouse one day before the treatments initiated. Compound 6 was dissolved in dimethyl sulfoxide (DMSO) and then diluted in 0.5% carboxymethyl cellulose or a Cremophor-based vehicle with the final concentration of DMSO less than 0.5%. Different treatment groups were orally (P.O.) or intravenously (I.V.) given, respectively, with Compound 6 of different doses for a pharmacological dose-response relationship. The mice of the negative control group were treated with the dosing vehicle only. […] The cancer cell-inoculated animals were monitored twice daily. Survival fractions of the mice were recorded. […]

`Nc1nc(-c2cccs2)cn1-c1nc(-c2ccccc2)cs1` [Compound 6, 1-(4-phenyl-1,3-thiazol-2-yl)-4-(2-thienyl)-1H-2-imidazolamine] was tested. Which “survival rate of the inoculated mice” value did it give?
Its value is “increased the survival rate”.
